As usually defined, the EC50 is the concentration needed to bring the measured effect to its halfway point.

Each structure is given as a SMILES string. Where a SMILES comes first, the peptide text is derived from it.

The target of this test is Glucagon-like peptide 1 receptor (Homo sapiens, UniProt P43220). Description: Agonist activity at human GLP-1R expressed in HEK293 cells assessed as stimulation of cAMP accumulation incubated for 20 mins. It counts as functional, cell-based.
Chain of Glucagon-like peptide 1 receptor (P43220 whole entry): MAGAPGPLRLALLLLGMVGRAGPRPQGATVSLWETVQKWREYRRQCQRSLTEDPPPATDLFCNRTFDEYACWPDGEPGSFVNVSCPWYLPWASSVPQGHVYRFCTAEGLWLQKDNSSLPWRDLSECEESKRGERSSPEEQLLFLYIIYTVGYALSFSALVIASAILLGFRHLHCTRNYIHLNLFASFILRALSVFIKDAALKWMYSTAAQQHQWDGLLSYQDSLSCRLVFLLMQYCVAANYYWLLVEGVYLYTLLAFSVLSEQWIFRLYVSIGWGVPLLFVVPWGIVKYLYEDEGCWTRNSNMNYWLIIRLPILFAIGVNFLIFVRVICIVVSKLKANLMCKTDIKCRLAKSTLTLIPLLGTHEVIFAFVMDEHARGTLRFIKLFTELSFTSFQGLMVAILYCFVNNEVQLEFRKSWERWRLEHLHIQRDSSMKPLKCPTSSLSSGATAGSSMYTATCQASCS
Consider `CC[C@H](C)[C@H](NC(=O)[C@H](CC(C)C)NC(=O)[C@H](Cc1c[nH]c2ccccc12)NC(=O)[C@H](CCC(=O)O)NC(=O)[C@@H](NC(=O)[C@H](Cc1ccccc1)NC(=O)[C@H](CCC(=O)O)NC(=O)[C@H](CCCCN)NC(=O)[C@H](C)NC(=O)[C@H](CS)NC(=O)[C@H](CCC(=O)O)NC(=O)[C@H](CCC(=O)O)NC(=O)[C@H](CCC(=O)O)NC(=O)[C@H](CC(C)C)NC(=O)[C@H](Cc1ccc(O)cc1)NC(=O)[C@H](CCC(=O)O)NC(=O)[C@H](CS)NC(=O)[C@@H](NC(=O)[C@H](CC(=O)O)NC(=O)[C@H](CC(N)=O)NC(=O)[C@@H](NC(=O)[C@H](Cc1ccc(O)cc1)NC(=O)[C@@H](NC(=O)CNC(=O)[C@H](CCC(=O)O)NC(=O)C(C)(C)NC(=O)[C@@H](N)Cc1c[nH]cn1)[C@@H](C)O)[C@@H](C)O)C(C)C)[C@@H](C)CC)C(=O)N[C@@H](CCCCN)C(=O)NCC(=O)N[C@@H](CCCCN)C(=O)N1CCC[C@H]1C(=O)N[C@@H](CO)C(=O)N[C@@H](CO)C(=O)NCC(=O)N[C@@H](C)C(=O)N1CCC[C@H]1C(=O)N1CCC[C@H]1C(=O)N1CCC[C@H]1C(=O)N[C@@H](CO)C(N)=O` (HELM PEPTIDE1{H.[Aib].E.G.T.Y.T.N.D.V.C.E.Y.L.E.E.E.C.A.K.E.F.I.E.W.L.I.K.G.K.P.S.S.G.A.P.P.P.S.[am]}$$$$V2.0), for which the EC50 came out at 0.15 nM. To `CC[C@H](C)[C@H](NC(=O)[C@H](CC(C)C)NC(=O)[C@H](Cc1c[nH]c2ccccc12)NC(=O)[C@H](CCC(=O)O)NC(=O)[C@@H](NC(=O)[C@H](Cc1ccccc1)NC(=O)[C@H](CCC(=O)O)NC(=O)[C@H](CCCCN)NC(=O)[C@H](C)NC(=O)[C@H](CS)NC(=O)[C@H](CCC(=O)O)NC(=O)[C@H](CCC(=O)O)NC(=O)[C@H](CCC(=O)O)NC(=O)[C@H](CC(C)C)NC(=O)[C@H](Cc1ccc(O)cc1)NC(=O)[C@H](CCC(=O)O)NC(=O)[C@H](CS)NC(=O)[C@@H](NC(=O)[C@H](CC(=O)O)NC(=O)[C@H](CC(N)=O)NC(=O)[C@@H](NC(=O)[C@H](Cc1ccc(O)cc1)NC(=O)[C@@H](NC(=O)CNC(=O)[C@H](CCC(=O)O)NC(=O)C(C)(C)NC(=O)[C@@H](N)Cc1c[nH]cn1)[C@@H](C)O)[C@@H](C)O)C(C)C)[C@@H](C)CC)C(=O)N[C@@H](CCCCN)C(=O)NCC(=O)N[C@@H](CCCCN)C(N)=O` (HELM PEPTIDE1{H.[Aib].E.G.T.Y.T.N.D.V.C.E.Y.L.E.E.E.C.A.K.E.F.I.E.W.L.I.K.G.K.[am]}$$$$V2.0) belongs 0.32 nM.

Take `CC[C@H](C)[C@H](NC(=O)[C@H](CC(C)C)NC(=O)[C@H](Cc1c[nH]c2ccccc12)NC(=O)[C@H](CCC(=O)O)NC(=O)[C@@H](NC(=O)[C@H](Cc1ccccc1)NC(=O)[C@H](CCC(=O)O)NC(=O)[C@H](CCCCN)NC(=O)[C@H](CS)NC(=O)[C@H](C)NC(=O)[C@H](CCC(=O)O)NC(=O)[C@H](CCC(=O)O)NC(=O)[C@H](CCC(=O)O)NC(=O)[C@H](CC(C)C)NC(=O)[C@H](Cc1ccc(O)cc1)NC(=O)[C@H](CS)NC(=O)[C@@H](NC(=O)[C@@H](NC(=O)[C@H](CC(=O)O)NC(=O)[C@H](CC(N)=O)NC(=O)[C@@H](NC(=O)[C@H](Cc1ccc(O)cc1)NC(=O)[C@@H](NC(=O)CNC(=O)[C@H](CCC(=O)O)NC(=O)C(C)(C)NC(=O)[C@@H](N)Cc1c[nH]cn1)[C@@H](C)O)[C@@H](C)O)C(C)C)[C@@H](C)O)[C@@H](C)CC)C(=O)N[C@@H](CCCCN)C(=O)NCC(=O)N[C@@H](CCCCN)C(=O)N1CCC[C@H]1C(=O)N[C@@H](CO)C(=O)N[C@@H](CO)C(=O)NCC(=O)N[C@@H](C)C(=O)N1CCC[C@H]1C(=O)N1CCC[C@H]1C(=O)N1CCC[C@H]1C(=O)N[C@@H](CO)C(N)=O` (HELM PEPTIDE1{H.[Aib].E.G.T.Y.T.N.D.V.T.C.Y.L.E.E.E.A.C.K.E.F.I.E.W.L.I.K.G.K.P.S.S.G.A.P.P.P.S.[am]}$$$$V2.0): the EC50 was found to be 0.12 nM.

As for `CC[C@H](C)[C@H](NC(=O)[C@H](CC(C)C)NC(=O)[C@H](Cc1c[nH]c2ccccc12)NC(=O)[C@H](CCC(=O)O)NC(=O)[C@@H](NC(=O)[C@H](Cc1ccccc1)NC(=O)[C@H](CCC(=O)O)NC(=O)[C@H](CCCCN)NC(=O)[C@H](CS)NC(=O)[C@H](C)NC(=O)[C@H](CCC(=O)O)NC(=O)[C@H](CCC(=O)O)NC(=O)[C@H](CCC(=O)O)NC(=O)[C@H](CC(C)C)NC(=O)[C@H](Cc1ccc(O)cc1)NC(=O)[C@H](CS)NC(=O)[C@@H](NC(=O)[C@@H](NC(=O)[C@H](CC(=O)O)NC(=O)[C@H](CC(N)=O)NC(=O)[C@@H](NC(=O)[C@H](Cc1ccc(O)cc1)NC(=O)[C@@H](NC(=O)CNC(=O)[C@H](CCC(=O)O)NC(=O)C(C)(C)NC(=O)[C@@H](N)Cc1c[nH]cn1)[C@@H](C)O)[C@@H](C)O)C(C)C)[C@@H](C)O)[C@@H](C)CC)C(=O)N[C@@H](CCCCN)C(=O)NCC(=O)N[C@@H](CCCCN)C(N)=O` (HELM PEPTIDE1{H.[Aib].E.G.T.Y.T.N.D.V.T.C.Y.L.E.E.E.A.C.K.E.F.I.E.W.L.I.K.G.K.[am]}$$$$V2.0), the EC50 stood at 0.26 nM.

As to `CC[C@H](C)[C@H](NC(=O)[C@H](CC(C)C)NC(=O)[C@H](Cc1c[nH]c2ccccc12)NC(=O)[C@H](CCC(=O)O)NC(=O)[C@@H](NC(=O)[C@H](Cc1ccccc1)NC(=O)[C@H](CCC(=O)O)NC(=O)[C@H](CS)NC(=O)[C@H](C)NC(=O)[C@H](C)NC(=O)[C@H](CCC(=O)O)NC(=O)[C@H](CCC(=O)O)NC(=O)[C@H](CCC(=O)O)NC(=O)[C@H](CC(C)C)NC(=O)[C@H](CS)NC(=O)[C@H](CCC(=O)O)NC(=O)[C@@H](NC(=O)[C@@H](NC(=O)[C@H](CC(=O)O)NC(=O)[C@H](CC(N)=O)NC(=O)[C@@H](NC(=O)[C@H](Cc1ccc(O)cc1)NC(=O)[C@@H](NC(=O)CNC(=O)[C@H](CCC(=O)O)NC(=O)C(C)(C)NC(=O)[C@@H](N)Cc1c[nH]cn1)[C@@H](C)O)[C@@H](C)O)C(C)C)[C@@H](C)O)[C@@H](C)CC)C(=O)N[C@@H](CCCCN)C(=O)NCC(=O)N[C@@H](CCCCN)C(=O)N1CCC[C@H]1C(=O)N[C@@H](CO)C(=O)N[C@@H](CO)C(=O)NCC(=O)N[C@@H](C)C(=O)N1CCC[C@H]1C(=O)N1CCC[C@H]1C(=O)N1CCC[C@H]1C(=O)N[C@@H](CO)C(N)=O` (HELM PEPTIDE1{H.[Aib].E.G.T.Y.T.N.D.V.T.E.C.L.E.E.E.A.A.C.E.F.I.E.W.L.I.K.G.K.P.S.S.G.A.P.P.P.S.[am]}$$$$V2.0), the EC50 stood at 0.19 nM.

Turning to `CC[C@H](C)[C@H](NC(=O)[C@H](CC(C)C)NC(=O)[C@H](Cc1c[nH]c2ccccc12)NC(=O)[C@H](CCC(=O)O)NC(=O)[C@@H](NC(=O)[C@H](Cc1ccccc1)NC(=O)[C@H](CCC(=O)O)NC(=O)[C@H](CS)NC(=O)[C@H](C)NC(=O)[C@H](C)NC(=O)[C@H](CCC(=O)O)NC(=O)[C@H](CCC(=O)O)NC(=O)[C@H](CCC(=O)O)NC(=O)[C@H](CC(C)C)NC(=O)[C@H](CS)NC(=O)[C@H](CCC(=O)O)NC(=O)[C@@H](NC(=O)[C@@H](NC(=O)[C@H](CC(=O)O)NC(=O)[C@H](CC(N)=O)NC(=O)[C@@H](NC(=O)[C@H](Cc1ccc(O)cc1)NC(=O)[C@@H](NC(=O)CNC(=O)[C@H](CCC(=O)O)NC(=O)C(C)(C)NC(=O)[C@@H](N)Cc1c[nH]cn1)[C@@H](C)O)[C@@H](C)O)C(C)C)[C@@H](C)O)[C@@H](C)CC)C(=O)N[C@@H](CCCCN)C(=O)NCC(=O)N[C@@H](CCCCN)C(N)=O` (HELM PEPTIDE1{H.[Aib].E.G.T.Y.T.N.D.V.T.E.C.L.E.E.E.A.A.C.E.F.I.E.W.L.I.K.G.K.[am]}$$$$V2.0), the EC50 stood at 0.49 nM.

Values taken from ChEMBL document CHEMBL4699602, “Stapled and Xenopus Glucagon-Like Peptide 1 (GLP-1)-Based Dual GLP-1/Gastrin Receptor Agonists with Improved Metabolic Benefits in Rodent Models of Obesity and Diabetes” (J Med Chem, 2020).
